# Measurements taken from patent publication US20110160306A1, “USE OF ALKANEDICARBOXYLIC ACIDS AND RETINOIDS FOR TREATMENT OF ROSACEA AND OTHER INFLAMMATORY SKIN DISEASES” (priority 2006, published 2011).
# Tested on: irritative contact dermatitis induced on the ears of mice by croton oil
# Test: Croton oil-induced irritative contact dermatitis on the mouse ear (ear weight, elastase and peroxidase in ear homogenate)
# Type: in vivo
# Settings: for Edema formation Weight change in %: ear weight at 24 h, vs croton oil + vehicle; for Inhibition [%] of Skin infiltration of Granulocytes & Monocytes (Myelo-Peroxidase Activity) / Inhibition [%] of Skin infiltration of Neutrophils Elastase Activity: ear homogenate at 24 h
# Excerpt: To do this, an inflammatory reaction, i.e., irritative contact dermatitis, is induced on the ears of mice by means of croton oil, and the test substance is applied. This test is explained in more detail below within the framework of the examples. The induction of an inflammatory reaction (irritative contact dermatitis) is a proven model for pharmacological evaluation of the anti-inflammatory potential of topically or systemically administered test substances ([…] and Lowe (1985) Evaluation of Topical Nonsteroidal Anti-Inflammatory Agents, Models in Dermatology, H. Maibach and N.J. Lowe. Basel, Karger: 35-42). Croton oil is applied to the ears of mice to carry out the study; this leads to an acute, inflammatory reaction with edema and infiltration of primarily polymorphonuclear granulocytes that reaches its peak within 24 hours. Test substance can be applied here either preventively, i.e., before application of the inflammatory stimulus, or simultaneously with croton oil. […] The vehicle alone acted as the vehicle control. […] The animals were sacrificed 24 hours after the eczema was triggered, and the ear weight was determined as a measure of inflammation and edema formation. In addition, the elastase and peroxidase parameters were determined from the ear homogenate. The number of animals was basically n=10/group. Elastase is a largely neutrophil-specific enzyme and thus a measure of the number of infiltrated neutrophilic granulocytes. […] Peroxidase is expressed by all granulocytes, in addition also by monocytes. It is used for measuring the infiltrated granulocytes and monocytes. Like neutrophils, granulocytes and monocytes/macrophages are also involved in inflammatory processes of the skin and can be repeatedly detected in the infiltrate of the aforementioned diseases.
# [1] = azelaic acid 10%, listed as azelaic acid
# [2] = azelaic acid 20%, listed as azelaic acid
# [3] = tretinoin 0.05%, listed as tretinoin
smiles,measurement,setting,value
"O=C(O)CCCCCCCC(=O)O [Azelaic acid, azelaic acid]",Edema formation Weight change in %,azelaic acid 10% topical with 1% croton oil,−6%
same,Edema formation Weight change in %,"azelaic acid 10% topical with 1% croton oil, listed as azelaic acid",no significant reduction of the edema
same,Inhibition [%] of Skin infiltration of Granulocytes & Monocytes (Myelo-Peroxidase Activity),azelaic acid 10%,−34%
same,Inhibition [%] of Skin infiltration of Neutrophils Elastase Activity,azelaic acid 10%,−12%
same,Inhibition [%] of Skin infiltration of Granulocytes & Monocytes (Myelo-Peroxidase Activity),[1],could already be influenced
same,Inhibition [%] of Skin infiltration of Neutrophils Elastase Activity,[1],cannot be significantly influenced
same,Edema formation Weight change in %,azelaic acid 15% topical with 1% croton oil,1%
same,Edema formation Weight change in %,"azelaic acid 15% topical with 1% croton oil, listed as azelaic acid",even an increase
same,Inhibition [%] of Skin infiltration of Granulocytes & Monocytes (Myelo-Peroxidase Activity),azelaic acid 15%,−16%
same,Inhibition [%] of Skin infiltration of Neutrophils Elastase Activity,azelaic acid 15%,−6%
same,Inhibition [%] of Skin infiltration of Neutrophils Elastase Activity,"azelaic acid 15%, listed as azelaic acid",cannot be significantly influenced
same,Edema formation Weight change in %,azelaic acid 20% topical with 1% croton oil,−16%
same,Edema formation Weight change in %,"azelaic acid 20% topical with 1% croton oil, listed as azelaic acid",no significant reduction of the edema
same,Inhibition [%] of Skin infiltration of Granulocytes & Monocytes (Myelo-Peroxidase Activity),azelaic acid 20%,−40%
same,Inhibition [%] of Skin infiltration of Neutrophils Elastase Activity,azelaic acid 20%,−48%
same,Inhibition [%] of Skin infiltration of Granulocytes & Monocytes (Myelo-Peroxidase Activity),[2],could already be influenced
same,Inhibition [%] of Skin infiltration of Neutrophils Elastase Activity,[2],reduced
"CC1=C(/C=C/C(C)=C/C=C/C(C)=C/C(=O)O)C(C)(C)CCC1 [Tretinoin, tretinoin]",Edema formation Weight change in %,tretinoin 0.05% topical with 1% croton oil,−4%
same,Edema formation Weight change in %,"tretinoin 0.05% topical with 1% croton oil, listed as tretinoin",does not lead to any significant reduction of edema
same,Inhibition [%] of Skin infiltration of Granulocytes & Monocytes (Myelo-Peroxidase Activity),tretinoin 0.05%,−3%
same,Inhibition [%] of Skin infiltration of Neutrophils Elastase Activity,tretinoin 0.05%,2%
same,Inhibition [%] of Skin infiltration of Granulocytes & Monocytes (Myelo-Peroxidase Activity),[3],did not lead to a significant decrease of peroxidase concentration
same,Inhibition [%] of Skin infiltration of Neutrophils Elastase Activity,[3],did not lead to a decrease of the elastase concentration
